“And” between values parts separate entries of the source, which are not always exact repeats. Identical values can stand only once.
What was measured:
Tau protein = assay: clinical trial: Tau protein in the CSF; assay type: in vivo, human
Excerpt: (§1) Biological Markers: Additional biochemical markers included phenotyping of the patients ApoE and determining relative concentrations of tau protein, P-amyloid protein (1-42 and 1-40); and relative extent of lipid peroxidation.

β-amyloid protein (1-40) = assay: clinical trial: CSF total β-amyloid (1-40); assay type: in vivo, human
Excerpt: as §1
Tables 11 and 12 summarize the changes in total β-amyloid protein (1-40 and 1-42) at one month, as a percentage of the baseline values.

plasma apolipoproteins = conditions: cited from earlier work
cortical infarct = assay: Wistar rat middle cerebral artery occlusion stroke model; assay type: in vivo; conditions: rats dosed i.p. daily for ten days, 2 hour middle cerebral artery occlusion, 22 hours reperfusion
Experimental: In particular, the Wistar rat model may be used with modifications. Briefly, rats are dosed (i.p.) daily with probucol or a saline negative control for ten days. On the tenth day, animals are then subjected to a 2 hour reversible, middle cerebral artery occlusion. Laser-Doppler flowmetry is used to monitor the ischemic period and early reperfusion. […] We predict that the cortical infarct volumes (indicative of neuronal damage) will be less in animals treated with probucol as compared to untreated animals.

Alzheimer's disease = assay: clinical trial: Global Deterioration Scale; assay type: in vivo, human; design: Global Deterioration Scale, 3 months / Global Deterioration Scale, 6 months / Global Deterioration Scale, 3 months, Average / Global Deterioration Scale, 6 months, Average: scale not given here
Experimental: Neuropsychological Assessment: The Clinical Impression of Change (CIBIC-Plus) and the Global Deterioration Scale (GDS) were recorded at 3 and 6 months. The Clinical Impression of Change (CIBIC-Plus) consists of the holistic impression by the clinician of whether the patient has shown any change since baseline as rated on a seven point sale (marked, moderate, mild improvement, no change, or marked, moderate, mild decline). The Global Deterioration Scale rates clinically identifiable stages of dementia. […] The GDS test provides a description of the key features of AD progression. […] The GDS is calculated as the average of scores related to the performance in the following areas of attention and concentration, recent memory, past memory, orientation, and functioning and self care.

lipid peroxidation = assay: clinical trial: lipid peroxidation in the CSF (TBARS); assay type: in vivo, human
Experimental: In order to assess the antioxidant properties of probucol we analyzed lipid peroxidation levels in the CSF of patients before and after one month of treatment with probucol (one month). In vitro lipid peroxidation was measured according to the method of Ohkawa et al. (Anal. Biochem., 95:351-358 (1979)) with some modifications. Briefly, cerebrospinal fluid samples from Alzheimer's disease patients were prepared in 20 volumes of phosphate buffer (pH=7) (95% N2, 5% CO2) with a Teflon homogenizer. After centrifugation (1000 g, 10 min., 2° C.), the supernatant was precipitated with trichloroacetic acid (72%) according to Brown et al. (Anal. Biochem., 189:136-139 (1989)). This procedure removed material such as non-lipid-derived malondialdehyde (MDA) that could interfere with lipid peroxidation measurement. After precipitation with trichloracetic acid and centrifugation (10000 g, 15 min., 2° C.), 100 μl of the supernatant containing human brain homogenates was used to measure MDA levels. These supernatants were incubated with 20 μl of SDS 10%, 150 μl of acetic acid 20% (pH 3.5), and 150 μl of thiobarbituric acid (TBA) (0.6% in 0.05 N NaOH) and heated at 100° C. for 60 min. This step was performed under a controlled atmosphere (95% N^2, 5% CO^2) in sealed vials to avoid formation of MDA during heating. At the end of the incubation, the reaction was stopped at 4° C. The MDA-TBA complex of TBARS (thiobarbituric acid reactive substances) was then extracted with 300 μl of butanol/pyridine (15:1) by strong shaking (for 30 sec.) followed by centrifugation (1000 g, 10 min., 4° C.).

ApoE = ApoE in medium of rat primary type 1 astrocyte cultures exposed to probucol, immunoblot; assay type: cell-based
Experimental: Apo E concentration was assessed in the cell culture medium by immunoblot analysis using methods previously described (Poirier et al., Neuroscience, 55:81-90 (1993)). In the absence of probucol (EtOH control) very little ApoE is detected in the media (i.e., the extracellular compartment). […] We also observed that the amount of ApoE detected in the media at 48 hours was less than the amount of ApoE in the media after only 24 hours of incubation. This time-dependent response in ApoE levels may reflect the continued division and growth of cells.

[1] = average of patients, baseline average 4.7

CC(C)(Sc1cc(C(C)(C)C)c(O)c(C(C)(C)C)c1)Sc1cc(C(C)(C)C)c(O)c(C(C)(C)C)c1 [probucol]
Tau concentration in the CSF, % change (Tau protein; 1 month relative to baseline, individual AD patient): 93% and 109% and 97% and 92% and 102% and 113% and 94% and 131% and 99% | Tau concentration in the CSF, 1 month (Tau protein; individual AD patient): 188 and 1099 and 251 and 1070 and 458 and 1120 and 394 and 916 and 620 | effect on Tau levels in the CSF, as a group (Tau protein; one month relative to baseline): no effect | [β amyloid 1-40] in the CSF, % change (β-amyloid protein (1-40); 1 month as a percentage of the baseline value, individual AD patient): 345% and 108% and 100% and 241% and 105% and 107% and 979% and 2157% | [β amyloid 1-40] in the CSF, 1 month (β-amyloid protein (1-40); individual AD patient, average of triplicate assays): 3.44 and 3.95 and 4.96 and 7.55 and 3.26 and 3.51 and 5.35 and 2.16 | levels of β-amyloid in the CSF (β-amyloid protein (1-40); one month of treatment, Alzheimer's patients, β-amyloid 1-40 and 1-42): overall increase | total plasma apoB, apoA-1, apoA-II, apoC-II and apoC-III (plasma apolipoproteins; human, in vivo): lower | circulating ApoE levels (plasma apolipoproteins; probucol-treated hypercholesterolemic patients): increased | effectiveness in subjects with apoE2/2 genotype (plasma apolipoproteins; subjects with a very high physiological concentration of ApoE): totally uneffective | cortical infarct volumes compared to untreated animals (cortical infarct): less | patient symptoms on the Global Deterioration Scale (Alzheimer's disease; at three and six months): relative stabilization | Global Deterioration Scale, 3 months, Average (Alzheimer's disease; [1]): 4.8 | Global Deterioration Scale, 6 months, Average (Alzheimer's disease; [1]): 5.3 | Global Deterioration Scale, 3 months (Alzheimer's disease; individual AD patient): 5 (2×) and 7 and 5.5 and 4.5 and 1.5 and 8 and 3.25 and 3.5 | Global Deterioration Scale, 6 months (Alzheimer's disease; individual AD patient): 6.5 and 7 and 5 and 6 and 1 and 8 and 3.5 and 5.5 | Lipid Peroxidation, Change (% Baseline), average (lipid peroxidation; 1 month, average for eight patients): 100.9 % Baseline | Lipid Peroxidation, Change (% baseline) (lipid peroxidation; 1 month, individual AD patient): 100.3 % baseline and 97.4 % baseline and 94.8 % baseline and 97.5 % baseline and 104.2 % baseline and 92.8 % baseline and 103.8 % baseline and 116.1 % baseline | Lipid Peroxidation, 1 month (lipid peroxidation; individual AD patient, average of 4-6 determinations): 0.705 Fluorescence Units and 0.686 Fluorescence Units and 0.687 Fluorescence Units and 0.692 Fluorescence Units and 0.744 Fluorescence Units and 0.691 Fluorescence Units and 0.731 Fluorescence Units and 0.824 Fluorescence Units | extracellular amount of ApoE (ApoE; 1 nM, 24 hours post dosing, versus EtOH control): dramatically increased | extracellular ApoE with increasing concentrations (ApoE; 100 nM and 10 uM versus 1 nM): Further increases | amount of ApoE in the media at 48 hours versus 24 hours (ApoE; 48 hours compared with 24 hours of incubation): less
